# Laboratory results published in patent publication US12336536B2, “Method for controlling herbicide resistant or tolerant weeds” (BASF Agro B.V., priority 2015, dated 2025).
# Key:
# Experiment in all cases: Greenhouse test, solo and combination, post-emergence, 20 DAT
# [1] = tested on: LOLRI; assay type: in vivo, Lolium rigidum
# Procedure: (§1) The test plants have been seeded, separately for each species, in plastic containers in sandy loamy soil containing 5% of organic matter.
# (§2) For the post-emergence treatment, the plants were first grown to the 2 leaf station (GS 12) and applied at GS 12-19 depending on the species. The herbicidal compositions were suspended or emulsified in water as distribution medium and sprayed using finely distributing nozzles.
# (§3) The plants have been cultivated due to their individual requirements at 10-25° C. and 20-35° C. The plants were irrigated due to their necessity.
# (§4) The racemic mixture (±)-2-exo-(2-Methylbenzyloxy)-1-methyl-4-isopropyl-7-oxabicyclo[2.2.1]heptane was used as herbicide A and formulated as emulsifiable concentrate having an active ingredient concentration of 750 g/l.
# (§5) Cyhalofop-butyl (herbicide B.5) was used as an emulsifiable concentrate (EC) formulation having an active ingredient concentration of 200 g/l.
# (§6) Metsulfuron-methyl (herbicide B.53) was used as a water soluble granule (SG) formulation having an active ingredient concentration of 20%.
# (§7) Bispyribac-sodium (herbicide B.23) was used as a soluble concentrate (SL) formulation having an active ingredient concentration of 408 g/l.
# (§8) Quizalofop-P-ethyl (herbicide B.217) was used as a suspension concentrate (SC) formulation having an active ingredient concentration of 106 g/l.
# (§9) In the following experiments, the herbicidal activity for the individual herbicide compounds (solo and mixture applications) was assessed 20 days after treatment (DAT).
# (§10) The evaluation for the damage on undesired weeds caused by the chemical compositions was carried out using a scale from 0 to 100%, compared to the untreated control plants. Here, 0 means no damage and 100 means complete destruction of the plants.
# (§11) The plants used in the greenhouse experiments belonged to the following species:
# (§12) E=X+Y−(X·Y/100) • where X=effect in percent using herbicide A at an application rate a; • Y=effect in percent using herbicide B at application rate b; • E=expected effect (in %) of herbicide A+herbicide B at application rates a+b.
# (§13) The value E corresponds to the effect (plant damage or injury) which is to be expected if the activity of the individual compounds is additive. If the observed effect is higher than the value E calculated according to the Colby equation, a synergistic effect is present.
# (§14) Tables 3 to 6 below relate the herbicidal activity, in greenhouse trials, of the individual actives and the combination applied at different rates and ratios, in post-emergence application at 20 days after treatment (DAT).
# [2] = tested on: MATIN; assay type: in vivo, Matricaria inodora
# Procedure: as §1, §2, §3, §4, §5, §6, §7, §8, §9, §10, §11, §12, §13, §14
# [3] = tested on: GALAP; assay type: in vivo, Galium aparine
# Procedure: as §1, §2, §3, §4, §5, §6, §7, §8, §9, §10, §11, §12, §13, §14
# [4] = tested on: PAPRH; assay type: in vivo, Papaver rhoeas
# Procedure: as §1, §2, §3, §4, §5, §6, §7, §8, §9, §10, §11, §12, §13, §14
# [5] = tested on: BRSNW; assay type: in vivo, Brassica napus
# Procedure: as §1, §2, §3, §4, §5, §6, §7, §8, §9, §10, §11, §12, §13, §14
# [6] = tested on: ALOMY; assay type: in vivo, Alopecurus myosuroides
# Procedure: as §1, §2, §3, §4, §5, §6, §7, §8, §9, §10, §11, §12, §13, §14
# [7] = tested on: BROST; assay type: in vivo, Bromus sterilis
# Procedure: as §1, §2, §3, §4, §5, §6, §7, §8, §9, §10, §11, §12, §13, §14
smiles,measurement,setting,value
CCCCOC(=O)[C@@H](C)Oc1ccc(Oc2ccc(C#N)cc2F)cc1 [cyhalofop-butyl],Herbicidal activity,[1]; solo application 12.5 g ai/ha,25%
same,Herbicidal activity,[2]; solo application 100 g ai/ha,0%
same,Herbicidal activity,[3]; solo application 50 g ai/ha,0%
same,Herbicidal activity,[3]; solo application 100 g ai/ha,0%
same,Herbicidal activity,[4]; solo application 12.5 g ai/ha,0%
same,Herbicidal activity,[4]; solo application 50 g ai/ha,0%
same,Herbicidal activity,[5]; solo application 100 g ai/ha,0%
same,Herbicidal activity,[6]; solo application 25 g ai/ha,5%
same,Herbicidal activity,[6]; solo application 50 g ai/ha,20%
same,Herbicidal activity,[7]; solo application 100 g ai/ha,0%
COC(=O)c1ccccc1S(=O)(=O)NC(=O)Nc1nc(C)nc(OC)n1 [metsulfuron-methyl],Herbicidal activity,[1]; solo application 1 g ai/ha,10%
same,Herbicidal activity,[2]; solo application 1 g ai/ha,90%
same,Herbicidal activity,[2]; solo application 2 g ai/ha,90%
same,Herbicidal activity,[2]; solo application 4 g ai/ha,85%
same,Herbicidal activity,[2]; solo application 8 g ai/ha,90%
same,Herbicidal activity,[3]; solo application 4 g ai/ha,30%
same,Herbicidal activity,[3]; solo application 8 g ai/ha,25%
same,Herbicidal activity,[4]; solo application 1 g ai/ha,0%
same,Herbicidal activity,[4]; solo application 4 g ai/ha,50%
same,Herbicidal activity,[4]; solo application 8 g ai/ha,98%
same,Herbicidal activity,[5]; solo application 1 g ai/ha,90%
same,Herbicidal activity,[5]; solo application 2 g ai/ha,95%
same,Herbicidal activity,[5]; solo application 8 g ai/ha,98%
same,Herbicidal activity,[6]; solo application 1 g ai/ha,0%
CCOC(=O)[C@@H](C)Oc1ccc(Oc2cnc3cc(Cl)ccc3n2)cc1 [quizalofop-P-ethyl],Herbicidal activity,[1]; solo application 15 g ai/ha,80%
same,Herbicidal activity,[1]; solo application 30 g ai/ha,95%
same,Herbicidal activity,[2]; solo application 15 g ai/ha,0%
same,Herbicidal activity,[2]; solo application 30 g ai/ha,0%
same,Herbicidal activity,[2]; solo application 60 g ai/ha,10%
same,Herbicidal activity,[3]; solo application 15 g ai/ha,0%
same,Herbicidal activity,[3]; solo application 30 g ai/ha,0%
same,Herbicidal activity,[4]; solo application 15 g ai/ha,25%
same,Herbicidal activity,[5]; solo application 120 g ai/ha,0%
same,Herbicidal activity,[6]; solo application 15 g ai/ha,60%
same,Herbicidal activity,[6]; solo application 30 g ai/ha,65%
same,Herbicidal activity,[6]; solo application 120 g ai/ha,85%
same,Herbicidal activity,[7]; solo application 15 g ai/ha,15%
same,Herbicidal activity,[7]; solo application 30 g ai/ha,50%
same,Herbicidal activity,[7]; solo application 60 g ai/ha,80%
same,Herbicidal activity,[7]; solo application 120 g ai/ha,95%
